Experimental data taken from US8193170B2, “2-methylene-19,26-dinor-(20R,22E,25R)-vitamin D analogs” (Wisconsin Alumni Research Foundation, priority 2008, dated 2012).
Entries after “also recorded” stand apart in the source; their conditions may differ.

Tests used:
HL-60 cells = test: HL-60 cell differentiation (nitro blue tetrazolium reduction); assay type: cell-based, human; settings: for EC50: differentiation of HL-60 cells into monocytes, FIG. 2
Description: The study drugs were dissolved in ethanol and the concentrations determined using UV spectrophotometry. Serial dilutions were prepared so that a range of drug concentrations could be tested without changing the final concentration of ethanol (≦0.2%) present in the cell cultures.
Human promyelocytic leukemia (HL60) cells were grown in RPMI-1640 medium containing 10% fetal bovine serum. The cells were incubated at 37° C. in the presence of 5% CO2.
HL60 cells were plated at 1.2×10^5 cells/ml. Eighteen hours after plating, cells in duplicate were treated with drug. Four days later, the cells were harvested and a nitro blue tetrazolium reduction assay was performed (Collins et al., 1979; J. Exp. Med. 149:969-974). The percentage of differentiated cells was determined by counting a total of 200 cells and recording the number that contained intracellular black-blue formazan deposits. Verification of differentiation to monocytic cells was determined by measuring phagocytic activity (data not shown).

[1] = Bone calcium mobilization (serum calcium) in vitamin D-deficient rats; assay type: in vivo, rat; settings: rats on 0.02% Ca diet, FIG. 4
Description: (§1) Male, weanling Sprague-Dawley rats were placed on Diet 11 (0.47% Ca) diet+AEK oil for one week followed by Diet 11 (0.02% Ca)+AEK oil for 3 weeks. The rats were then switched to a diet containing 0.47% Ca for one week followed by two weeks on a diet containing 0.02% Ca. Dose administration began during the last week on 0.02% calcium diet. Four consecutive ip doses were given approximately 24 hours apart. Twenty-four hours after the last dose, blood was collected from the severed neck and the concentration of serum calcium determined as a measure of bone calcium mobilization. The first 10 cm of the intestine was also collected for intestinal calcium transport analysis using the everted gut sac method.

[2] = tested on: 24-hydroxylase (24Ohase) gene promoter in ROS 17/2.8 (bone) cells; test: In vitro transcription assay (24-hydroxylase gene promoter luciferase reporter); assay type: cell-based; settings: for EC50: ROS 17/2.8 cells, 24-hydroxylase promoter-luciferase, FIG. 3, read-out: EC50, transcriptional activity in bone cells
Description: Transcription activity was measured in ROS 17/2.8 (bone) cells that were stably transfected with a 24-hydroxylase (24Ohase) gene promoter upstream of a luciferase reporter gene (Arbour et al., 1998). Cells were given a range of doses. Sixteen hours after dosing the cells were harvested and luciferase activities were measured using a luminometer.
RLU=relative luciferase units.

[3] = Intestinal calcium transport, everted gut sac method, in vitamin D-deficient rats; assay type: in vivo, rat; settings: FIG. 5
Description: as §1

[4] = target: T1, full-length recombinant rat vitamin D receptor (Rattus norvegicus, UniProt P13053); test: Vitamin D receptor competitive binding with [3H]-1,25(OH)2D3
T1 construct: Full-length recombinant rat receptor was expressed in E. coli; histidine tag (C); made in house; host or cells: E. coli BL21 (DE3) Codon Plus RIL
T1 sequence (P13053 1-423): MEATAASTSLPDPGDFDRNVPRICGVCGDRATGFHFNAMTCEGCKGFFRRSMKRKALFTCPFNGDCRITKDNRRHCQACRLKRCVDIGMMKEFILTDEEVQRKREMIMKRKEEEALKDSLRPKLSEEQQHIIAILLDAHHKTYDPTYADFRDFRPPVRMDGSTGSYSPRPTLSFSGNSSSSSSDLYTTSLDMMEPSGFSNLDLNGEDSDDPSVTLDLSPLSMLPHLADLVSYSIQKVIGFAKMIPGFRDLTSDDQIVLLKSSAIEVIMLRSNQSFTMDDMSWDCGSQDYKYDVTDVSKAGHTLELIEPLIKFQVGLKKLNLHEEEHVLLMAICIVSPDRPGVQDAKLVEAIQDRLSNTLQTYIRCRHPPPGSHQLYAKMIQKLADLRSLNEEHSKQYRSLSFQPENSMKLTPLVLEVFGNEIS
Description: Full-length recombinant rat receptor was expressed in E. coli BL21 (DE3) Codon Plus RIL cells and purified to homogeneity using two different column chromatography systems. The first system was a nickel affinity resin that utilizes the C-terminal histidine tag on this protein. The protein that was eluted from this resin was further purified using ion exchange chromatography (S-Sepharose Fast Flow). Aliquots of the purified protein were quick frozen in liquid nitrogen and stored at −80° C. until use. For use in binding assays, the protein was diluted in TEDK50 (50 mM Tris, 1.5 mM EDTA, pH7.4, 5 mM DTT, 150 mM KCl) with 0.1% Chaps detergent. The receptor protein and ligand concentration were optimized such that no more than 20% of the added radiolabeled ligand was bound to the receptor.
Radiolabeled and unlabeled ligands were added to 100 mcl of the diluted protein at a final ethanol concentration of ≦10%, mixed and incubated overnight on ice to reach binding equilibrium. The following day, 100 mcl of hydroxylapatite slurry (50%) was added to each tube and mixed at 10-minute intervals for 30 minutes. The hydroxylapaptite was collected by centrifugation and then washed three times with Tris-EDTA buffer (50 mM Tris, 1.5 mM EDTA, pH 7.4) containing 0.5% Titron X-100. […] Total binding was determined from the tubes containing only radiolabeled ligand.

[5] = 780 pmol/day ip for 4 consecutive days

Row | SMILES | EC50 (HL-60 cells) | Bone calcium mobilization (serum calcium) [1, 5] | Serum calcium levels ([1]; all dosages tested) | EC50 [2] | Intestinal calcium transport activity [3, 5] | Intestinal calcium transport, dose dependence ([3]; range of doses) | Ki ([4]; full-length recombinant rat VDR, FIG. 1, read-out: Ki, competition with [3H]-1,25(OH)2D3 for binding to the vitamin D receptor) | VDR binding potency relative to 1,25(OH)2D3 (times less potent) ([4]; less potent than 1,25(OH)2D3) | EC50 (HL-60 cells; Homo sapiens) | HL-60 cell differentiation activity relative to 1,25(OH)2D3 (times more) (HL-60 cells; more active than 1,25(OH)2D3) | Bone calcium mobilization (serum calcium) ([1]; 2,340 pmol/day ip for 4 consecutive days) | Transcription activity of the 24-hydroxylase gene relative to 1,25(OH)2D3 (times more) ([2]; more potent than 1,25(OH)2D3, bone cells)
1 | C=C1/C(=C\C=C2/CCC[C@]3(C)[C@@H]([C@H](C)CCCC(C)(C)O)CC[C@@H]23)C[C@@H](O)C[C@@H]1O [1,25(OH)2D3, 1α,25-dihydroxyvitamin D3, reference compound] | 2 nM | significant activity | increased serum calcium levels at all dosages | 0.2 nM |  |  |  |  |  |  |  | 
2 | C=C1[C@H](O)CC(=C/C=C2\CCC[C@]3(C)[C@@H]([C@H](C)/C=C/C[C@@H](C)O)CC[C@@H]23)C[C@H]1O [RR-22, 2-methylene-19,26-dinor-(20R,22E,25R)-1α,25-dihydroxyvitamin D3] |  |  |  | 0.02 nM | almost the same activity as 1,25(OH)2D3 | promotes intestinal calcium transport in a dose dependent manner | 0.1 nM | about 10 times | 0.2 nM | about 10 times | did not result in any mobilization of bone calcium; also recorded: no bone calcium mobilization activity | about 10 times
